Measured values reported in PMC6236407 (Molecules : A Journal of Synthetic Chemistry and Natural …, 2001).

Legend:
[1] = system: 5-HT1A serotonin receptor sites; conditions: background statement, no reference given; cited from earlier work
[2] = molecular target: 5-HT2A receptors (Rattus norvegicus, UniProt P14842); assay: Radioligand binding, displacement of [3H]-ketanserin in rat cortex
[3] = molecular target: T1, 5-HT1A receptors (Rattus norvegicus, UniProt P19327); assay: Radioligand binding, displacement of [3H]-8-OH-DPAT in rat hippocampus
T1 sequence (P19327 1-422): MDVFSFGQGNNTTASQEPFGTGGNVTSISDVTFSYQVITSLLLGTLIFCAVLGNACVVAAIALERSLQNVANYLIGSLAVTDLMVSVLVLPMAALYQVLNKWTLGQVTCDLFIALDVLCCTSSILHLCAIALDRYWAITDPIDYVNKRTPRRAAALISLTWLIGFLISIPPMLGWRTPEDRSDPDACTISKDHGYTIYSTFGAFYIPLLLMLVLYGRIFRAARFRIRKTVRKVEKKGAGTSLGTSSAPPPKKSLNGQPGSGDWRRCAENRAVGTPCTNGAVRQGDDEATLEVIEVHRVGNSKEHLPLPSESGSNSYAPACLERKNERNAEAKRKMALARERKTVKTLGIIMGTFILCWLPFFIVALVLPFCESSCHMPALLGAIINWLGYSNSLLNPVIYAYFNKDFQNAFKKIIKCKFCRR

Sequence of 5-HT2A receptors (P14842 whole entry): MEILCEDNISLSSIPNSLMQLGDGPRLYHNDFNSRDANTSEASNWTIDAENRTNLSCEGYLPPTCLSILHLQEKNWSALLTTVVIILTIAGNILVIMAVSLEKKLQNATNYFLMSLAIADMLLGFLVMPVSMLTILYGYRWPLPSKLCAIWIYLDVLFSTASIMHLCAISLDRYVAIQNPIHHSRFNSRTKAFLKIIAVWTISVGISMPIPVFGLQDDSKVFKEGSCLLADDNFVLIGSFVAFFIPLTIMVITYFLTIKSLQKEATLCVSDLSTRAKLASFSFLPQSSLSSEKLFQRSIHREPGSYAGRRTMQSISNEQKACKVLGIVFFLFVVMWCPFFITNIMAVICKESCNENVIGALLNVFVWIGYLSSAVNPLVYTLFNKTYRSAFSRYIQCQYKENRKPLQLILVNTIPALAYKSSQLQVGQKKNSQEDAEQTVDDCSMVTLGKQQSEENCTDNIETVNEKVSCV

Ki [2]	Ki [3]	Compound	binding to 5-HT1A serotonin receptor sites (in words) [1]
–	–	O=C1c2ccccc2S(=O)(=O)N1CCCCN1CCN(c2ncccn2)CC1 [Ipsapirone]	high affinity and selectivity
309 ± 1 nM	119 ± 8 nM	O=c1c2ccccc2c(=O)n(-c2ccccc2)n1CCCCN1CCN(c2ccccc2)CC1 [Compound 8c, 3-[4-(4-phenyl-1-piperazinyl)butyl]-2-phenyl-2,3-dihydrophthalazine-1,4-dione]	–
–	–	CC1(C)CC(=O)N(CCCCN2CCN(c3ncccn3)CC2)C(=O)C1 [Gepirone]	high affinity and selectivity
409 ± 17 nM	19 ± 1 nM	O=c1ccc(=O)n(-c2ccccc2)n1CCCCN1CCN(c2ccccc2)CC1 [Compound 9c, 2-[4-(4-phenyl-1-piperazinyl)butyl]-1-phenyl-1,2-dihydropyridazine-3,6-dione]	–
–	–	O=C1CC2(CCCC2)CC(=O)N1CCCCN1CCN(c2ncccn2)CC1 [Buspirone, {4-[4-(2-pyrimidinyl)-1-piperazinyl]butyl}-8-azaspiro[4.5]decane-7,9-dione]	high affinity and selectivity
